This is an account of results in patent US20220370447A1, “METHOD OF TREATING HBV INFECTION USING A CORE PROTEIN ALLOSTERIC MODULATOR” (Hoffmann-La Roche Inc., priority 2019, published 2022).

Format in all cases: in vivo, human
The subject of data set [1] is HBV. Nature of the data set: Completed clinical studies (YP39364 Part 1 and 2, YP39406, YP40218), four-week treatment, PD markers. Conditions: four-week treatment with Compound (I). An excerpt:
(§1) Three clinical studies (Part 1 and 2 of YP39364 (NCT02952924), YP39406 (NCT03570658), and YP40218 (NCT03717064)) have been completed to characterize the safety, tolerability, pharmacokinetics (PK) and pharmacodynamics (PD) of Compound (I) in both healthy volunteers and CHB patients. […] Thus, there is an unmet medical need for a novel method of treatment with Compound (I) that could achieve a higher rate of functional cure with a finite treatment duration and excellent tolerability.

The test system of data set [2] is HBV. Nature of the data set: Treatment methods of the invention, Compound (I) monotherapy or combination for 12-144 weeks in patients infected with HBV. From the text: Study population: patients infected with HBV (Terrault NA, Lok ASF, McMahon BJ, et al. Update on prevention, diagnosis, and treatment of chronic hepatitis B: AASLD 2018 hepatitis B guidance. Hepatology. 2018; 67:1560-1599.European Association for the Study of the Liver. EASL 2017 Clinical Practice Guidelines on the management of hepatitis B virus infection. J Hepatol. 2017; 67:370-398.).
General Methods: To explore the effects of Compound (I) on HBsAg loss or decline, Compound (I) is administered following the dose regimen listed in Table 1. The primary measure is the quantitative HBsAg decline or HBsAg loss (<0.05 IU/mL, measured by Elecsys® HBsAg II (Roche)®) at 24 weeks post treatment.

A short description of data set [3]: Safety and tolerability in chronic hepatitis B patients.
Description: as §1
In this invention, methods of Compound (I) monotherapy and Compound (I) in combination with other anti-HBV agents for 12-144 weeks were developed. […] Comparing with current NUC treatment, the current finite treatment methods of this invention minimize the risk of drug resistance and decrease adverse effects of NUC treatment (e.g. the risk of renal injury, bone density loss and creatine kinase elevation, etc).

[4] abbreviates: immune tolerant patients (HBV DNA levels elevated, ALT levels normal).

Turning to `CCOC(=O)C1=C(CN2CCN3C(=O)N(CC(C)(C)C(=O)O)C[C@@H]3C2)NC(c2nccs2)=N[C@H]1c1cccc(F)c1C` [Compound (I)], in the data set on HBV [1], the “HBV DNA (short-term PD marker)” value is “robust decline”, the “HBV RNA (short-term PD marker)” value is on record as “robust decline” and the HBsAg decline result was “significant decline of HBsAg has not been observed”. Moreover, the “hepatitis B surface antigen (HBsAg) decline or loss” value with HBV [2] (Compound (I) in combination with other anti-HBV agents for 12-144 weeks) is reported as “significant hepatitis B surface antigen (HBsAg) decline or loss”. Further, in the data set with HBV [2] (setting [4]), the “HBV DNA decline” value was “robust HBV DNA and HBV RNA decline”; the “HBV RNA decline” value was “robust HBV DNA and HBV RNA decline”. Moreover, the Safety and tolerability entry in data set [3] was “safe and well tolerated”.
